Experimental data as given in article PMC8401404 (Molecules, 2021).
Structures can show the parent of a compound that is named as a salt.

Assays:
[1] = tested on: poly dA-poly dT (DNA, polymer) A/T; assay: UV thermal melting at 260 nm; settings: Na+ (sodium cacodylate, I = 0.05 M), pH 7.0, r = [compound]/[polynucleotide phosphate] = 0.3, error ±0.5, per base
[2] = tested on: poly dA-poly dT (DNA, polymer) A/T; assay: CD titration; settings: Na+ (sodium cacodylate, I = 0.05 M), pH 7.0, 25 °C, polynucleotide 3.0 × 10^-5 M
[3] = tested on: poly(dAdT)2 (DNA, polymer) AT; assay: CD titration; settings: Na+ (sodium cacodylate, I = 0.05 M), pH 7.0, 25 °C, polynucleotide 3.0 × 10^-5 M
[4] = tested on: poly(dAdT)2 (DNA, polymer) AT; assay: UV thermal melting at 260 nm; settings: Na+ (sodium cacodylate, I = 0.05 M), pH 7.0, r = [compound]/[polynucleotide phosphate] = 0.3, error ±0.5, per base
[5] = tested on: HCC827; assay: Cytotoxicity (viability) assay, 3D hanging drop cell culture; settings: read-out: Cytotoxicity Assay IC50 ± SD; HCC827 3D; HCC827, 3D hanging drop spheres, 72 h; n = 2
[6] = tested on: A549; assay: as above; settings: read-out: Cytotoxicity Assay IC50 ± SD; A549 3D; A549, 3D hanging drop spheres, 72 h; n = 2
[7] = tested on: NCI-H358; assay: as above; settings: read-out: Cytotoxicity Assay IC50 ± SD; NCI-H358 3D; NCI-H358, 3D hanging drop spheres, 72 h; n = 2
[8] = tested on: S. aureus ATCC 29213; assay: Broth microdilution testing (CLSI); format: cell-based, Staphylococcus aureus; settings: broth microdilution, 16–24h at 37 °C; read-out: MIC S. aureus ATCC 29213
Protocol: (§1) Broth microdilution testing was performed according to CLSI (Clinical Laboratory Standards Institute) guidelines. MIC (minimal inhibitory concentration) value was defined as the last tested concentration of compound at which there is no visible growth of bacteria. […] Clinical and Laboratory Standards Institute (CLSI) guidelines.

[9] = tested on: HCC827; assay: BrdU proliferation assay, 2D cell culture; format: cell-based, human; settings: HCC827, 2D, BrdU, n = 2, read-out: Proliferation Assay IC50 ± SD
[10] = tested on: A549; assay: BrdU proliferation assay, 2D cell culture; format: cell-based, human; settings: A549, 2D, BrdU, n = 2, read-out: Proliferation Assay IC50 ± SD
[11] = tested on: NCI-H358; assay: BrdU proliferation assay, 2D cell culture; format: cell-based, human; settings: NCI-H358, 2D, n = 2, read-out: Proliferation Assay IC50 ± SD
[12] = tested on: E. coli ATCC 25922; assay: Broth microdilution testing (CLSI); format: cell-based, Escherichia coli; settings: broth microdilution, 16–24h at 37 °C; read-out: MIC E. coli ATCC 25922
Protocol: as §1

[13] = tested on: human lung fibroblast cell line MRC-5; assay: MTS cytotoxicity assay, 2D cell culture, normal lung fibroblasts; settings: read-out: Cytotoxicity Assay IC50 ± SD; MRC-5 2D; MRC-5 normal lung fibroblasts, 2D, 72 h, MTS; n = 2
[14] = tested on: HCC827; assay: MTS cytotoxicity assay, 2D cell culture; settings: read-out: Cytotoxicity Assay IC50 ± SD; HCC827 2D, 72 h, MTS; n = 2
[15] = tested on: A549; assay: MTS cytotoxicity assay, 2D cell culture; settings: read-out: Cytotoxicity Assay IC50 ± SD; A549 2D, 72 h, MTS; n = 2
[16] = tested on: NCI-H358; assay: MTS cytotoxicity assay, 2D cell culture; settings: read-out: Cytotoxicity Assay IC50 ± SD; NCI-H358 2D, 72 h, MTS; n = 2
[17] = tested on: HCC827; assay: BrdU proliferation assay, 3D hanging drop cell culture; format: cell-based, human; settings: HCC827, 3D, BrdU, n = 2, read-out: Proliferation Assay IC50 ± SD
[18] = tested on: A549; assay: as above; format: cell-based, human; settings: A549, 3D, BrdU, n = 2, read-out: Proliferation Assay IC50 ± SD
[19] = tested on: NCI-H358; assay: as above; format: cell-based, human; settings: NCI-H358, 3D, n = 2, read-out: Proliferation Assay IC50 ± SD
[20] = tested on: S. cerevisiae ATCC 7752; assay: Broth microdilution testing (CLSI); format: cell-based, Saccharomyces cerevisiae; settings: broth microdilution, 16–24h at 37 °C; read-out: MIC S. cerevisiae ATCC 7752
Protocol: as §1

Clc1ccc(-c2ccc(-c3nc4cc(C5=NCCN5)ccc4[nH]3)o2)cc1 (as salt: hydrochloride) [Compound 15, 2-[5-(4-Chlorophenyl)furan-2-yl]-5(6)-(4,5-dihydro-1H-imidazol-2-yl)benzimidazole hydrochloride]
melting point: 262 to 269 °C
ΔTm [1]: 11.7 °C
binding [2]: yes
binding [3]: yes
ΔTm [4]: 6.2 °C

N#CC(=Cc1ccc(-c2ccc(Cl)cc2)o1)c1nc2cc([N+](=O)[O-])ccc2[nH]1 [Compound 21, (E,Z)-3-[5-(4-Chlorophenyl)furan-2-yl]-2-(5(6)-nitrobenzimidazol-2-yl)acrylonitrile]
IC50 [5]: > 100 µM
IC50 [6]: > 100 µM
IC50 [7]: > 100 µM
MIC [8]: >100 µM
IC50 [9]: > 50 µM
IC50 [10]: > 50 µM
IC50 [11]: > 50 µM
MIC [12]: >100 µM
IC50 [13]: > 50 µM
IC50 [14]: > 50 µM
IC50 [15]: > 50 µM
IC50 [16]: 3.58 ± 0.95 µM
IC50 [17]: > 100 µM
IC50 [18]: > 100 µM
IC50 [19]: > 100 µM
MIC [20]: >100 µM
